Measured values taken from patent US20060223792A1, “Phenyl and pyridyl LTA4H modulators” (priority 2005, published 2006).
Structures can show the parent of a compound that is named as a salt. Where two headings read alike, the source gives them in different places.

Experiments:
[1] = target: T1, recombinant human LTA4 hydrolase (rhLTA4H) (Homo sapiens, UniProt P09960); experiment: Recombinant human LTA4 hydrolase assay for LTA4 hydrolase inhibitor activity; type: biochemical
T1 construct: made in house; host or cells: Spodoptera frugiperda (Sf-9) cells, baculovirus (pFastBac1)
T1 sequence (P09960 1-611): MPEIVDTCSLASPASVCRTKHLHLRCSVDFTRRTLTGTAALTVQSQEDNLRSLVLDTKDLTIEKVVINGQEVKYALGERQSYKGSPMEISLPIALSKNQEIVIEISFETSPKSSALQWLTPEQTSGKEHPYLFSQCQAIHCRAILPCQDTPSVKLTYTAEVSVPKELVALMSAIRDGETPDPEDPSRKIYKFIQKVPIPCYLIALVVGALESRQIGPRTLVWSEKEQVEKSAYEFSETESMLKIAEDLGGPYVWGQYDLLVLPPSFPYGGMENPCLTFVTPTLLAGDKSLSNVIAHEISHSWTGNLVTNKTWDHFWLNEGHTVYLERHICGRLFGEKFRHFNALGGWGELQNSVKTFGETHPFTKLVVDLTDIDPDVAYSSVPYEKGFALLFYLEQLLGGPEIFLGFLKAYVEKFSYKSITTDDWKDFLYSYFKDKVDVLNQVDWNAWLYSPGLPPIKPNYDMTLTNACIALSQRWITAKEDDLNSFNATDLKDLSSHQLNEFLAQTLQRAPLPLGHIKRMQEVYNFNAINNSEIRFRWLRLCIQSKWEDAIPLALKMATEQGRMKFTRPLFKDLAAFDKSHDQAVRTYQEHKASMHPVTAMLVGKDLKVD
Procedure, shortened: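 Sf-9-expressed rhLTA4H (36 ng) preincubated 10 min at rt with compound in 0.1 M potassium phosphate pH 7.4, 5 mg/mL fatty-acid-free BSA; 9 ng LTA4 free acid added, 10 min at rt in 225 μL. LTB4 measured by enzyme immunoassay; IC50 from 4-parameter fit, mean of one to three determinations.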

[2] = test system: ex vivo stimulated LTB4 production; experiment: Murine arachidonic acid-induced inflammation model: ex vivo stimulated LTB4 production in blood; settings: Mus musculus; 30 mg/kg oral gavage, female Balb/c mice; blood taken 3 h after arachidonic acid, stimulated ex vivo with A23187; read-out: % Inh. LTB4
Protocol: (§1) Murine Arachidonic Acid-Induced Inflammation Model
(§2) LTA4H inhibitor compounds of the present invention were dissolved in 20% cyclodextran/H2O at a concentration of 3 mg/mL. The solutions were administered by oral gavage to female Balb/c mice weighing approximately 20 grams each (0.2 mL per mouse, 30 mg of LTA4H inhibitor compound per kg). Sixty minutes after being administered an LTA4 inhibitor, each mouse received topical application of 20 μL of arachidonic acid (100 mg/mL in acetone) to the left ear and 20 μL of acetone only to the right ear. After 3 h, the mice were sacrificed, blood was withdrawn in heparinized syringes, and 8 mm ear biopsies were taken. Ear biopsies were weighed to determine edema and then frozen at −80° C. until needed for determination of neutrophil influx.
One hundred-microliter aliquots of heparinized blood were added to wells of a microtiter plate, along with equal volumes of RPMI-1640 medium, and calcium ionophore A23187 was added to each sample well (final concentration=[…]). The microtiter plate contents were incubated for 10 min at 37° C. in a humidified incubator. The reaction was terminated by centrifugation (833×g, 10 min at 4° C.). Supernatants were analyzed for LTB4 by a commercially available enzyme-linked immunoassay (Cayman Chemical Co.) in accordance with the manufacturer's instructions. The percent inhibition of ex vivo stimulated LTB4 production (% Inh. LTB4) was determined by comparison to animals treated identically except that the solution admininstered by oral gavage was devoid of inhibitor compound.

[3] = test system: neutrophil influx (myeloperoxidase, MPO); experiment: Murine arachidonic acid-induced inflammation model: neutrophil influx in ear (myeloperoxidase activity); type: in vivo, female Balb/c mice; settings: Mus musculus, read-out: % Inh. MPO
Protocol: as §1, §2
Neutrophil influx was quantified by measuring the activity of myeloperoxidase (MPO), a neutrophil-specific enzyme. The ear biopsies were homogenized in 0.5 mL extraction buffer (0.3 M sucrose, 0.22% (w/v) hexadecyl trimethyl ammonium bromide (CTAB), and 2.5 mM citrate prepared from 0.5 M citrate stock solution (pH 5.0)). Debris was removed by centrifugation at 14000×g for 10 min. Aliquots of 10 μL of the resulting supernatant were added to wells of a microtiter plate, along with 90-μL aliquots of dilution buffer (10 mM citrate, 0.22% CTAB), followed by addition of 20 μL TMB liquid substrate system (Sigma Chemical Co.) to each sample well. The microtiter plate contents were held at rt for 1 h. The reaction was stopped by addition of 100 μL 1 M H2SO4 to each sample well, and the myeloperoxidase activity in each sample was determined from the absorbance at 405 nm. The background value from the right ear, treated only with acetone, was subtracted from that for the left ear, treated with arachidonic acid in acetone, for each animal. The percent inhibition of neutrophil influx (% lnh. MPO) by compounds of the invention was determined by comparison to animals treated identically, except that the solution administered by oral gavage was devoid of inhibitor compound.

[4] = test system: LTB4 production by calcium ionophore-stimulated murine blood; experiment: LTB4 production by calcium ionophore-stimulated murine blood for LTA4H inhibitor activity; type: cell-based, CD-1 mice; settings: diluted CD-1 mouse whole blood, calcium ionophore A23187, LTB4 by enzyme-linked immunoassay
Protocol: LTB4 Production by Calcium Ionophore-Stimulated Murine Blood for LTA4H Inhibitor Activity
CD-1 mice were sacrificed, and blood was collected in heparin-containing syringes by cardiac puncture. The blood was diluted 1:15 with RPMI-1640 medium, and 200-μL aliquots of the diluted blood were added to wells of a 96-well microtiter plate. LTA4H inhibitor test compounds were prepared at different concentrations in RPMI-1640 medium containing […], and 20 μL of each test solution was added to a well containing diluted whole blood (final DMSO concentration of 0.1%). After the microtiter plate contents were incubated for 15 min at 37° C. in a humidified incubator, calcium ionophore A23187 (Sigma Chemical Co., St. Louis, Mo.) was added to each sample well (final concentration=20 ng/mL). The incubation was continued under the same conditions for an additional 10 min to allow LTB4 formation. The reaction was terminated by centrifugation (833×g, 10 min at 4° C.), and supernatants were analyzed for LTB4 by a commercially available enzyme-linked immunoassay (Cayman Chemical Co.) according to the manufacturer's instructions. Positive controls, under essentially identical conditions but without addition of an inhibitor compound, and negative unstimulated controls, containing all assay components except calcium ionophore, were routinely run in each experiment. IC50 values were determined by fitting the activity data at different compound concentrations to a 4-parameter equation using the Grafit program (Erithacus software).

[5] = test system: ionophore-induced LTB4 production; settings: oral administration; cited from earlier work
[6] = test system: ionophore-induced LTB4 production; settings: oral administration; cited from earlier work; remark: listed apart in the source
colitis symptoms = settings: eight weeks of treatment, cotton top tamarins; cited from earlier work
[7] = recombinant human LTA4H, LTB4 quantified by enzyme-linked immunoassay, average of one to three determinations, read-out: IC50
[8] = 30 mg/kg oral gavage 60 min before topical arachidonic acid to ear, female Balb/c mice, ear biopsies after 3 h

IC50 [4]	SMILES	IC50 [1, 7]	inhibition at 30 mg/kg [2]	also measured
–	O=C(Nc1ccccc1)Oc1ccc(OCCN2CCCCC2)cc1 [Example 15, Phenyl-carbamic acid 4-(2-piperidin-1-yl-ethoxy)-phenyl ester]	13 nM	78%	inhibition in vivo at 30 mg/kg ([3]; po, 3 h): 92%
–	O=C(O)CCN(CCc1ccc(OCCc2ccccc2)cc1)C1CCCCC1 [Example 89, 3-{Cyclohexyl-[2-(4-phenethyloxy-phenyl)-ethyl]-amino}-propionic acid]	7 nM	36%	inhibition in vivo at 30 mg/kg [3, 8]: 41%
16 nM	CS(=O)(=O)NC1CCN(Cc2ccc(OCCc3ccccc3)cc2)CC1 [Example 93, N-[1-(4-Phenethyloxy-benzyl)-piperidin-4-yl]methanesulfonamide]	18 nM	–	–
56 nM	CC(=O)NC1CCN(Cc2ccc(OCCc3ccccc3)cc2)CC1 [Example 113, N-[1-(4-Phenethyloxy-benzyl)-piperidin-4-yl]-acetamide]	13 nM	–	–
215 nM	c1ccc2c(c1)CC(Oc1ccc(OCCN3CCCCC3)cc1)C2 [Example 69, 1-{2-[4-(Indan-2-yloxy)-phenoxy]-ethyl}-piperidine]	20 nM	–	–
–	O=C(Nc1ccccc1)Oc1ccc(OCCN2CCC(O)(c3ccccc3)CC2)cc1 [Example 47, Phenyl-carbamic acid 4-[2-(4-hydroxy-4-phenyl-piperidin-1-yl)-ethoxy]-phenyl ester]	1 nM	80%	inhibition in vivo at 30 mg/kg ([3]; po, 3 h): 95%
284 nM	c1ccc(CCOc2ccc(CN3CCC(c4nnn[nH]4)CC3)cc2)cc1 [Example 104, 1-(4-Phenethyloxy-benzyl)-4-(1H-tetrazol-5-yl)-piperidine]	61 nM	–	–
–	O=C(O)CCN(CCc1ccc(OCCc2ccccc2)cc1)C1CC1 [Example 35, 3-{Cyclopropyl-[2-(4-phenethyloxy-phenyl)-ethyl]-amino}-propionic acid trifluoroacetic acid salt]	0.5 nM	84%	inhibition in vivo at 30 mg/kg [3, 8]: 92%
–	CCCCN(CCCC)CCOc1ccc(OC(=O)Nc2ccccc2)cc1 [Example 48, Phenyl-carbamic acid 4-(2-dibutylamino-ethoxy)-phenyl ester]	9 nM	69%	inhibition in vivo at 30 mg/kg ([3]; po, 3 h): 66%
126 nM	CC(=O)NC1CCN(Cc2ccc(OCCCc3ccccc3)cc2)CC1 [Example 120, N-{1-[4-(3-Phenyl-propoxy)-benzyl]-piperidin-4-yl}-acetamide]	25 nM	–	–
–	CN(CCCOc1ccc(Cc2ccccc2)cc1)CCC(=O)O.Cl [SC57461]	–	–	inhibition of ionophore-induced LTB4 production in mouse blood ex vivo [5]: caused inhibition; inhibition of ionophore-induced LTB4 production in rat peritoneum in vivo [6]: caused inhibition; colitis symptoms (colitis symptoms): significantly improved colitis symptoms
93 nM	CS(=O)(=O)NC1CCN(Cc2ccc(OCCCc3ccccc3)cc2)CC1 [Example 119, N-{1-[4-(3-Phenyl-propoxy)-benzyl]-piperidin-4-yl}-methanesulfonamide]	19 nM	–	–
202 nM	O=C(COc1ccc(OCCN2CCCCC2)cc1)c1ccccc1 [Example 24, 1-Phenyl-2-[4-(2-piperidin-1-yl-ethoxy)-phenoxy]-ethanone]	58 nM	–	–
–	O=C(Nc1ccccc1)Oc1ccc(CCN2CCCCC2)cc1 [Example 52, Phenyl-carbamic acid 4-(2-piperidin-1-yl-ethyl)-phenyl ester]	3 nM	80%	inhibition in vivo at 30 mg/kg ([3]; po, 3 h): 87%

SMILES	IC50 [4]	IC50 [1, 7]	inhibition at 30 mg/kg [2]	also measured
CCCCN(CCCC)CCCc1ccc(OC(=O)Nc2ccccc2)cc1 [Example 12, Phenyl-carbamic acid 4-(3-dibutylamino-propyl)-phenyl ester hydrochloride]	88 nM	–	–	IC50 [1]: 3 nM
O=C(Nc1ccccc1)Oc1ccc(OCCN2CCC(CO)CC2)cc1 [Example 51, Phenyl-carbamic acid 4-[2-(4-hydroxymethyl-piperidin-1-yl)-ethoxy]-phenyl ester]	12 nM	4 nM	–	–
O=C(Nc1cccc(O)c1)Oc1ccc(OCCN2CCC(O)(c3ccccc3)CC2)cc1 [Example 11, (3-hydroxy-phenyl)-carbamic acid 4-[2-(4-hydroxy-4-phenyl-piperidin-1-yl)-ethoxy]-phenyl ester]	12 nM	0.3 nM	–	–
O=C(Cc1ccc(OCCN2CCC(O)(c3ccccc3)CC2)cc1)Nc1ccccc1O [Example 13, N-(2—hydroxy-phenyl)-2-{4-[2-(4-hydroxy-4-phenyl-piperidin-1-yl)-ethoxy]-phenyl}-acetamide]	47 nM	10 nM	–	–
